# PMC11823609, “Advancements in the fight against globally distributed OXA-48 carbapenemase: evaluating the new generation of carbapenemase inhibitors” (Antimicrobial Agents and Chemotherapy, 2025)
# What was measured:
# Test in all cases: microbe, parasite or virus in culture
# [1] = system: E. coli strain 177 (MLST 131, ESBL); type: cell-based; conditions: Escherichia coli
# Outline: (§1)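 OXA-48-carrying Enterobacterales isolates were chosen as pairs with and without ESBLs. Ertapenem and ceftazidime MICs were then measured with each inhibitor at 4 mg/L, in triplicate, using EUCAST 13.0 breakpoints.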
# [2] = system: K. pneumoniae strain 413 (MLST 147, ESBL); type: cell-based; conditions: Klebsiella pneumoniae
# Outline: as §1
# [3] = system: K. pneumoniae strain 238 (MLST 15, ESBL); type: cell-based; conditions: Klebsiella pneumoniae
# Outline: as §1
# [4] = system: E. cloacae strain 281 (MLST 78, No ESBL); type: cell-based; conditions: Enterobacter cloacae; E. cloacae 281; β-lactamase inhibitor alone; read-out: MIC
# Outline: as §1
# [5] = system: K. pneumoniae strain 237 (MLST 147, No ESBL); type: cell-based; conditions: Klebsiella pneumoniae; K. pneumoniae 237; β-lactamase inhibitor alone; read-out: MIC
# Outline: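 MICs were determined in triplicate against WGS-characterized OXA-48-positive clinical isolates, with EUCAST 13.0 breakpoints applied. Each inhibitor was tested at 4 mg/L combined with ertapenem or ceftazidime as reporter substrates; compounds were also tested alone.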
# [6] = system: K. pneumoniae strain 497 (MLST 11, No ESBL); type: cell-based; conditions: Klebsiella pneumoniae; K. pneumoniae 497; β-lactamase inhibitor alone; read-out: MIC
# [7] = system: E. cloacae strain 235 (MLST 171, ESBL); type: cell-based; conditions: Enterobacter cloacae
# Outline: as §1
# [8] = system: K. pneumoniae strain 170 (MLST 307, No ESBL); type: cell-based; conditions: Klebsiella pneumoniae; K. pneumoniae 170; β-lactamase inhibitor alone; read-out: MIC
# Outline: as §1
# [9] = system: E. cloacae strain 272 (MLST 78, ESBL); type: cell-based; conditions: Enterobacter cloacae
# Outline: as §1
# [10] = system: K. pneumoniae strain 19 (MLST 11, ESBL); type: cell-based; conditions: Klebsiella pneumoniae
# Outline: as §1
# [11] = system: K. pneumoniae strain 23 (MLST 392, ESBL); type: cell-based; conditions: Klebsiella pneumoniae
# Outline: as §1
# [12] = system: K. pneumoniae strain 194 (MLST 392, No ESBL); type: cell-based; conditions: Klebsiella pneumoniae; K. pneumoniae 194; β-lactamase inhibitor alone; read-out: MIC
# Outline: as §1
# [13] = system: E. coli strain 264 (MLST 131, No ESBL); type: cell-based; conditions: Escherichia coli; E. coli 264; β-lactamase inhibitor alone; read-out: MIC
# Outline: as §1
# [14] = system: E. cloacae strain 231 (MLST 171, No ESBL); type: cell-based; conditions: Enterobacter cloacae; E. cloacae 231; β-lactamase inhibitor alone; read-out: MIC
# Outline: as §1
# [15] = system: E. coli strain 224 (MLST 127, No ESBL); type: cell-based; conditions: Escherichia coli; E. coli 224; β-lactamase inhibitor alone; read-out: MIC
# Outline: as §1
# [16] = system: E. coli strain 103 (MLST 10, ESBL); type: cell-based; conditions: Escherichia coli
# Outline: as §1
# [17] = system: K. pneumoniae strain 125 (MLST 307, ESBL); type: cell-based; conditions: Klebsiella pneumoniae
# Outline: as §1
# [18] = system: K. pneumoniae strain 71 (MLST 15, No ESBL); type: cell-based; conditions: Klebsiella pneumoniae; K. pneumoniae 71; β-lactamase inhibitor alone; read-out: MIC
# Outline: as §1
# [19] = system: E. coli HB4 ΔompC/F (OXA-48); type: cell-based, Escherichia coli; conditions: Escherichia coli
# Outline: (§2)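 MICs were determined in triplicate for E. coli TG1 and HB4 transformants carrying OXA-48, alone or with CTX-M-14; HB4 is a low-permeability (ΔompC/F) background. Inhibitors were tested at 4 mg/L with ertapenem or ceftazidime as reporter substrates, and EUCAST 13.0 breakpoints applied.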
# E. coli HB4 ΔompC/F = type: cell-based, Escherichia coli; conditions: Escherichia coli
# Outline: as §2
# E. coli TG1 = type: cell-based; conditions: Escherichia coli, β-lactamase inhibitor alone
# Outline: as §2
# E. coli TG1 (OXA-48) = type: cell-based, Escherichia coli; conditions: Escherichia coli
# Outline: as §2
structure (smiles),measurement,setting,value
"O=C(O)c1c(F)ccc2c1OB(O)[C@@H]1C[C@H]21 [Xeruborbactam, xeruborbactam]",MIC,[1],64 µg/mL
same,MIC,[2],64 µg/mL
same,MIC,[3],64 µg/mL
same,MIC,[4],32 µg/mL
same,MIC,[5],64 µg/mL
same,MIC,[6],64 µg/mL
same,MIC,[7],≥ 128 µg/mL
same,MIC,[8],32 µg/mL
same,MIC,[9],32 µg/mL
same,MIC,[10],32 µg/mL
same,MIC,[11],32 µg/mL
same,MIC,[12],32 µg/mL
same,MIC,[13],32 µg/mL
same,MIC,[14],32 µg/mL
same,MIC,[15],32 µg/mL
same,MIC,[16],64 µg/mL
same,MIC,[17],32 µg/mL
same,MIC,[18],32 µg/mL
same,MIC,[19],16 µg/mL
same,MIC,E. coli HB4 ΔompC/F,16 µg/mL
same,MIC,E. coli TG1,32 µg/mL
same,MIC,E. coli TG1 (OXA-48),32 µg/mL
